Converted amounts (≈) assume the structure as drawn. “Also recorded” adds a separate entry of the source.
Key:
P. aeruginosa ATCC 19660 = assay: Bacterial growth and Minimum Inhibitory Concentration (MIC), strain 19660; assay type: cell-based, Pseudomonas aeruginosa; conditions: for absorbance values of bacterial cultures: vs growth control
[1] = test system: mRNA levels in P. aeruginosa KEI 1025 infected cornea; assay: Real time RT-PCR of cornea, KEI 1025 infection; assay type: in vivo, C57BL/6 (B6) mice
Experimental: The left eyes of B6 mice (n=5/group/time) were injected with 5 μl of 2 μg/μl glycyrrhizin (GLY) (Sigma-Aldrich, St. Louis, Mo.) or PBS (control) subconjunctivally, one day before infection. Similar treatment was done using carbenoxolone (CBX) (Sigma-Aldrich, St. Louis, Mo.). All mice were injected intraperitoneally (IP) at 1 and 3 days p.i. with 100 μl of GLY (2 μg/μl) or CBX (1 μg/μl). PBS served as control for all these experiments. In a separate similar experiment mice were treated one day before infection with GLY subconjunctivally and injected intraperitoneally (i.p.) with GLY plus recombinant (r) HMGB1 (1 μg/100 μl) or GLY plus PBS. IP injections were similarly given at 1 and 3 days p.i. In an additional experiment, KEI 1025 infected B6 mice were treated with 5 μl of 2 μg/μl GLY subconjunctivally at 6 hours p.i. and injected intraperitoneally at 1 and 3 days p.i. with 100 μl of GLY (2 μg/μl).
KEI 1025 or ATCC strain 19660 infected GLY or PBS treated mice were sacrificed at 5 days p.i. and the normal, contralateral (uninfected) and infected cornea was harvested. For each cornea, total RNA was isolated (RNA STAT-60™; Tel-Test, Friendswood, Tex.) according to the manufacturer's instructions. Upon spectrophotometric quantification at 260 nm, 1 μg of each RNA sample was reverse transcribed using Moloney-murine leukemia virus (M-MLV) reverse transcriptase (Invitrogen, Carlsbad, Calif.) to produce a cDNA template for the PCR reaction. cDNA products were diluted 1:25 with diethylpyrocarbonate (DEPC)-treated water. A 2 μl aliquot of diluted cDNA was used for the real-time RT-PCR reaction with Real-Time SYBR® Green/Fluorescein PCR Master Mix (Bio-Rad) and primer concentrations of 10 μM (total 10 μl reaction volume). After a pre-programmed hot start cycle (3 min at 95° C.), the parameters used for PCR amplification were: 15 sec at 95° C. and 60 sec at 60° C. with the cycles repeated 45 times. Optimal conditions for PCR amplification of cDNA were established using routine methods. mRNA levels of HMGB1, RAGE, IL-1β, TLR2, TLR4, CXCL2, TNF-α, NLR family pyrin domain containing 3 (NLRP3), NLR family CARD domain containing 4 (NLRC4), IL-12, TGF-β, IL-10, single Ig IL-1-related receptor (SIGIRR) and interleukin 1 receptor-like 1 (ST2) were tested by real-time RT-PCR (CFX Connect™ Real-Time PCR Detection System; Bio-Rad, Richmond, Calif.). The fold differences in gene expression were calculated after normalization to β-actin and expressed as the relative mRNA concentration+SEM.

[2] = KEI 1025, pretreatment subconj. + IP, infected cornea 5 days p.i., vs PBS

CC1(C)[C@@H](O[C@H]2O[C@H](C(=O)O)[C@@H](O)[C@H](O)[C@H]2O[C@@H]2O[C@H](C(=O)O)[C@@H](O)[C@H](O)[C@H]2O)CC[C@]2(C)[C@H]3C(=O)C=C4[C@@H]5C[C@@](C)(C(=O)O)CC[C@]5(C)CC[C@@]4(C)[C@]3(C)CC[C@@H]12 [GLY, glycyrrhizin]
MIC50 (P. aeruginosa ATCC 19660; Pseudomonas aeruginosa, ATCC19660, strain 19660, 50% decrease in absorbance at 540 nm, 37° C., 18 h): 20 mg/mL (≈ 24.3 mM)
MIC90 (P. aeruginosa ATCC 19660; Pseudomonas aeruginosa, ATCC19660, strain 19660, 90% decrease in absorbance at 540 nm, 37° C., 18 h): 40 mg/mL (≈ 48.6 mM)
Minimum Inhibitory Concentration 50 (MIC50) (P. aeruginosa ATCC 19660; cytotoxic strains): 20 milligrams/milliliter
absorbance values of bacterial cultures (P. aeruginosa ATCC 19660; strain 19660, grown with 10 mg/ml GLY): significantly reduced
absorbance values of bacterial cultures (P. aeruginosa ATCC 19660; strain 19660, grown with 20 mg/ml GLY): significantly reduced
absorbance values of bacterial cultures (P. aeruginosa ATCC 19660; strain 19660, grown with 40 mg/ml GLY): significantly reduced
CXCL2 mRNA levels [1, 2]: reduced
HMGB1 mRNA levels [1, 2]: significantly reduced; also recorded: significantly decreased
IL-1β mRNA levels [1, 2]: significantly reduced
IL-10 mRNA levels [1, 2]: reduced
IL-12 mRNA levels [1, 2]: only GLY reduced
NLRC4 mRNA levels [1, 2]: only GLY reduced
NLRP3 mRNA levels [1, 2]: reduced
RAGE mRNA levels [1, 2]: reduced RAGE mRNA levels (FIG. 2B) when compared with PBS but not significantly
ST2 mRNA levels [1, 2]: reduced
TGF-β mRNA levels [1, 2]: reduced
TLR2 mRNA levels [1, 2]: significantly reduced
TLR4 mRNA [1, 2]: reduced
TNF-α mRNA levels [1, 2]: reduced by both GLY and CBX, but only GLY (p<0.01) was significant
mRNA levels of the other molecules tested ([1]; normal (uninfected) corneas, among PBS, CBX, GLY groups): no differences
RAGE mRNA levels ([1]; normal (uninfected) corneas, vs PBS): significantly reduced
